Reference: ChEMBL document CHEMBL6134872, “Efficacy and Toxicity Analysis of Selective BET Bromodomain Inhibitors in Models of Inflammatory Liver Disease” (J Med Chem, 2025)
Active and inactive are the calls of the source. The rule behind the calls is not given here.

Tests used:
[1] = Toxicity in mouse Megakaryocyte cells assessed as reduction in thrombocytopenia risk by CFU-MK Assay; assay type: cell-based
Mus musculus [2] = experiment: Antiinflammatory activity against APAP-induced C57BL/6J mouse liver injury model assessed as reduction in Ccl2 expression at 30 mg/kg, po preincubated for 1 hr followed by APAP stimulation and measured after 8 hrs by qPCR analysis; assay type: functional, organism-based; conditions: time 9.0 hrs
[3] = Cytotoxicity against mouse TSEC cells at up to 200 uM measured after 4 hrs by XTT assay; assay type: toxicity, cell-based
Mus musculus [4] = experiment: Antiinflammatory activity against APAP-induced C57BL/6J mouse liver injury model assessed as reduction in Cxcl2 expression at 30 mg/kg, po preincubated for 1 hr followed by APAP stimulation and measured after 8 hrs by qPCR analysis; assay type: functional, organism-based; conditions: time 9.0 hrs
Mus musculus [5] = experiment: Antiinflammatory activity against APAP-induced C57BL/6J mouse liver injury model assessed as reduction in Cxcl1 expression at 30 mg/kg, po preincubated for 1 hr followed by APAP stimulation and measured after 8 hrs by qPCR analysis; assay type: functional, organism-based; conditions: time 9.0 hrs
Mus musculus [6] = experiment: Antiinflammatory activity against LPS-induced C57BL/6J mouse model assessed as reduction in Cxcl2 expression at 30 mg/kg, po preincubated for 1 hr followed by LPS stimulation and measured after 8 hrs by qPCR analysis; assay type: functional, organism-based; conditions: time 9.0 hrs
Mus musculus [7] = experiment: Antiinflammatory activity against APAP-induced C57BL/6J mouse liver injury model assessed as reduction in necrosis at 30 mg/kg, po preincubated for 1 hr followed by APAP stimulation and measured after 12 hrs by H and E staining based analysis; assay type: functional, organism-based
Mus musculus [8] = experiment: Antiinflammatory activity against LPS-induced C57BL/6J mouse model assessed as reduction in Cxcl1 expression at 30 mg/kg, po preincubated for 1 hr followed by LPS stimulation and measured after 8 hrs by qPCR analysis; assay type: functional, organism-based; conditions: time 9.0 hrs
Mus musculus [9] = experiment: Antiinflammatory activity against LPS-induced C57BL/6J mouse model assessed as reduction in goblet cell in small intestine at 30 mg/kg, po preincubated for 1 hr followed by LPS stimulation and measured after 8 days by alcian blue staining based analysis; assay type: functional, organism-based; conditions: time 9.0 hrs
Mus musculus [10] = experiment: Antiinflammatory activity against LPS-induced C57BL/6J mouse model assessed as reduction in Ccl2 expression at 30 mg/kg, po preincubated for 1 hr followed by LPS stimulation and measured after 8 hrs by qPCR analysis; assay type: functional, organism-based; conditions: time 9.0 hrs
[11] = target: T1, Bromodomain-containing protein 4 (Homo sapiens, UniProt O60885); experiment: Induction of stabilization of BRD4-BD1 in human HEK293T cells at 0.5 to 5 uM incubated for 2 hrs by CESTA analysis; assay type: cell-based; conditions: dose 0.5-5 µM
Mus musculus [12] = experiment: Antiinflammatory activity against APAP-induced C57BL/6J mouse liver injury model assessed as reduction in Ly6G expression at 30 mg/kg, po preincubated for 1 hr followed by APAP stimulation and measured after 8 hrs by qPCR analysis; assay type: functional, organism-based; conditions: time 9.0 hrs
TSEC [13] = experiment: Antiinflammatory activity against LPS induced mouse TSEC cells assessed as inhibition of CCL2 expression at 0.3 to 5 uM preincubated for 1 hr followed by LPS stimulation and measured after 4 hrs by qPCR analysis; assay type: functional, cell-based; conditions: dose 0.3-5 µM, time 5.0 hrs
[14] = target: Bromodomain-containing protein 2 (Homo sapiens, UniProt P25440); experiment: Inhibition of his9-tagged BRD2-BD2 (unknown origin) preincubated for 30 mins followed by addition of biotinylated peptide and measured after 30 mins by Alphascreen assay
[15] = AUC in male C57BL6 mouse liver at 10 mg/kg, ip measured up to 24 hrs by LC-MS/MS analysis; assay type: ADME, organism-based; conditions: in vivo
[16] = AUC in male C57BL6 mouse plasma at 10 mg/kg, ip measured up to 24 hrs by LC-MS/MS analysis; assay type: ADME, organism-based; conditions: for AUC at 24 h: male, C57BL6, mouse, plasma
[17] = Cmax in male C57BL6 mouse plasma at 10 mg/kg, ip measured up to 24 hrs by LC-MS/MS analysis; assay type: ADME, organism-based
[18] = Cmax in male C57BL6 mouse liver at 10 mg/kg, ip measured up to 24 hrs by LC-MS/MS analysis; assay type: ADME, organism-based; conditions: in vivo
[19] = Apparent oral clearance in male C57BL6 mouse plasma at 10 mg/kg, ip measured up to 24 hrs by LC-MS/MS analysis; assay type: ADME, organism-based
[20] = Half life in male C57BL6 mouse liver at 10 mg/kg, ip measured up to 24 hrs by LC-MS/MS analysis; assay type: ADME, organism-based; conditions: for half-life: male, C57BL6, mouse, liver
TSEC [21] = experiment: Antiinflammatory activity against LPS induced mouse TSEC cells assessed as inhibition of CXCL1 expression at 0.3 to 5 uM preincubated for 1 hr followed by LPS stimulation and measured after 4 hrs by qPCR analysis; assay type: functional, cell-based; conditions: dose 0.3-5 µM, time 5.0 hrs
[22] = Metabolic stability in mouse liver microsomes assessed as half life […] measured after 60 mins in presence of NADPH by LC-MS/MS analysis; assay type: ADME, Microsome
[23] = target: T1, Bromodomain-containing protein 4; experiment: Inhibition of human his tagged BRD4-BD2 using Histone H4 peptide (1-21) K5/8/12/16Ac as substrate preincubated for 30 mins followed by addition of biotinylated peptide and measured after 30 mins by Alphascreen assay
[24] = target: T1, Bromodomain-containing protein 4; experiment: Inhibition of his9-tagged BRD4-BD1 (unknown origin) preincubated for 30 mins followed by addition of biotinylated peptide and measured after 30 mins by Alphascreen assay
[25] = target: T1, Bromodomain-containing protein 4; experiment: Binding affinity to N-luc fused BRD4-BD1 in HEK293T cells assessed as apparent inhibition constant using NanoGlo substrate as substrate incubated for 2 hrs by NanoBRET assay; assay type: cell-based; conditions: read-out: Ki(app)
[26] = target: T1, Bromodomain-containing protein 4; experiment: Inhibition of N-luc fused BRD4-BD1 in HEK293T cells using NanoGlo substrate as substrate incubated for 2 hrs by NanoBRET assay; assay type: cell-based
[27] = target: T1, Bromodomain-containing protein 4; experiment: Inhibition of N-luc fused BRD4-BD1 in HEK293T cells using NanoGlo substrate as substrate at 10 uM incubated for 2 hrs by NanoBRET assay relative to control; assay type: cell-based
[28] = Cytotoxicity against mouse TSEC cells at 10 uM measured after 4 hrs by XTT assay; assay type: toxicity, cell-based
[29] = male, C57BL6, mouse, plasma, read-out: CL/F (converted)
[30] = mouse, megakaryocyte cells (CFU-MK colony formation)
[31] = mouse, in vivo, ip, 10 mg/kg, 24 h

Bromodomain-containing protein 2, sequence (P25440 whole entry): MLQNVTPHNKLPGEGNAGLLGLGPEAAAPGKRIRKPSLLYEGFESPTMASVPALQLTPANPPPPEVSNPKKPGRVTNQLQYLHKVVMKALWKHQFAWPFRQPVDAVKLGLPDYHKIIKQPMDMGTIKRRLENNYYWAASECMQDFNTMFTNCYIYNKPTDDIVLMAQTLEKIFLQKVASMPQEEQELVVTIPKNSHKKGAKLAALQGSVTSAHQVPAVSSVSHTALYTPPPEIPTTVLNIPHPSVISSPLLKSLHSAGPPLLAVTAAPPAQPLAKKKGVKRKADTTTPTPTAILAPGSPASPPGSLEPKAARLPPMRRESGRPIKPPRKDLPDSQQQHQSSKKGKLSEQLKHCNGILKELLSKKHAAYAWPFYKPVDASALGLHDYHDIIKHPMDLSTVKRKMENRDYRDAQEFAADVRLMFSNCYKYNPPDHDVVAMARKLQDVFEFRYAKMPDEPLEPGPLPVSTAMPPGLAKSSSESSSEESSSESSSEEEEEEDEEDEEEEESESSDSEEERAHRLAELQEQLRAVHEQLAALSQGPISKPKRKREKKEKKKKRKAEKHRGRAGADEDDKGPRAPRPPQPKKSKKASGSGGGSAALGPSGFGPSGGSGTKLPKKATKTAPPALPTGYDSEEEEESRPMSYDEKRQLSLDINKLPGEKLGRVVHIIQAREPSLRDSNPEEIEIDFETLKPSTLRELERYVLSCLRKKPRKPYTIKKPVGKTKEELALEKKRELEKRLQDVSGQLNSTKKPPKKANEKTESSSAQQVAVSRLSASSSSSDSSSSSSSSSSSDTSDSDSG

COc1cc2c(cc1-c1c(C)noc1C)ncc1[nH]c(=O)n([C@H](C)c3ccccn3)c12
EC50 ([1]; megakaryocyte): 1280 nM
Activity (Mus musculus [2]): inactive
Activity [3]: Non-toxic
Activity (Mus musculus [4]): Active
Activity (Mus musculus [5]): Active
Activity (Mus musculus [6]): Active
Activity (Mus musculus [7]): inactive
Activity (Mus musculus [8]): Active
Activity (Mus musculus [9]): Active
Activity (Mus musculus [10]): Active
Activity [11]: Active
Activity (Mus musculus [12]): Active

CC(=O)Nc1c(F)cc(C(=O)N[C@H]2CC[C@H](O)CC2)cc1O[C@@H](C)c1ccccc1 [GSK046]
EC50 ([1]; megakaryocyte): 380 nM
Activity (Mus musculus [2]): inactive
Activity [3]: Non-toxic
Activity (Mus musculus [4]): inactive
Activity (Mus musculus [7]): Active
Activity (TSEC [13]): Active; Compound Is Less Effective Than I-Bet151 And Compound 3
IC50 [14]: 49 nM

Cc1cc(C)cc(Oc2cccc(-c3c(C)nnn3C3CCN(CCN(C)C)CC3)n2)c1
AUC [15]: 2.65 nmol·h/g
EC50 ([1]; megakaryocyte): 90 nM
Activity (Mus musculus [2]): Active
Activity [3]: Non-toxic
Activity (Mus musculus [4]): Active
AUC at 24 h [16]: 0.64 µM·h
Cmax [17]: 430 nM
Activity (Mus musculus [5]): Active
Activity (Mus musculus [6]): Active; Compound Showed No Significant Reduction Compared To I-Bet151 And Compound 3(Dw34)
Activity (Mus musculus [7]): Active
Activity (TSEC [13]): Active
Cmax [18]: 3.69 nmol/g
Activity (Mus musculus [8]): Active; Compound Showed No Significant Reduction Compared To I-Bet151 And Compound 3(Dw34)
Activity (Mus musculus [9]): Active
Activity (Mus musculus [10]): Active; Compound Showed No Significant Reduction Compared To I-Bet151 And Compound 3(Dw34)
CL/F [19, 29]: 470 mL/min/kg
half-life [20]: 2.3 h
Activity [11]: inactive
Activity (Mus musculus [12]): Active
Activity (TSEC [21]): Active

CCNC(=O)c1cc2c(-c3cc(C(C)(C)O)ccc3Oc3c(C)cc(F)cc3C)cn(C)c(=O)c2[nH]1 [ABBV-744]
EC50 [1, 30]: 3 nM

Cc1ccc(C(C)C)cc1Oc1nccc(-c2c(-c3ccc(C(F)(F)F)cc3)ncn2C2CCN(CCO)CC2)n1
AUC [15]: 138 nmol·h/g
EC50 ([1]; megakaryocyte): 1830 nM
Activity (Mus musculus [2]): Active
half-life [22]: 1.29 h
Activity [3]: Non-toxic
Activity (Mus musculus [4]): inactive
AUC at 24 h [16]: 4.04 µM·h
Cmax [17]: 1050 nM
IC50 [23]: > 10000 nM
IC50 [24]: 111 nM
Activity (Mus musculus [5]): Active
Ki [25]: 936 nM
Activity (Mus musculus [6]): Active; Compound Showed No Significant Reduction Compared To I-Bet151 And Compound 3(Dw34)
Activity (Mus musculus [7]): Active
Activity (TSEC [13]): Active
EC50 [26]: 2450 nM
Cmax [18]: 38.9 nmol/g
Activity (Mus musculus [8]): Active; Compound Showed No Significant Reduction Compared To I-Bet151 And Compound 3(Dw34)
Activity (Mus musculus [10]): Active; Compound Showed No Significant Reduction Compared To I-Bet151 And Compound 3(Dw34)
CL/F [19, 29]: 65 mL/min/kg
half-life [20]: 3.4 h
inhibition [27]: 36%
Activity [11]: inactive
Activity (Mus musculus [12]): inactive
IC50 [14]: > 10000 nM
Activity (TSEC [21]): Active

CCS(=O)(=O)Nc1ccc(Oc2ccc(F)cc2F)c(-c2cn(C)c(=O)c3[nH]ccc23)c1 [MIVEBRESIB]
EC50 [1, 30]: 645 nM

O=C(Nc1ccc(C(F)(F)F)cc1)Nc1ccc(S(=O)(=O)N2CCC[C@H]2CN2CCOCC2)cc1
IC50 [14]: > 50000 nM

Cc1ccc(C(C)C)cc1Oc1nccc(-c2c(-c3ccc(C(F)(F)F)cc3)ncn2C2CCNCC2)n1
AUC [15]: 1402 nmol·h/g
EC50 ([1]; megakaryocyte): 670 nM
Activity (Mus musculus [2]): Active
half-life [22]: 3.45 h
Activity (Mus musculus [4]): Active
AUC [16, 31]: 40.2 µM·h
Activity [28]: Toxic
Cmax [17]: 1800 nM
Activity (Mus musculus [5]): Active
Activity (Mus musculus [6]): Active
Activity (Mus musculus [7]): Active
Activity (TSEC [13]): Active
Cmax [18]: 137 nmol/g
Activity (Mus musculus [8]): Active
Activity (Mus musculus [9]): Active
Activity (Mus musculus [10]): Active
CL/F [19, 31]: 418 mL/min/kg
t1/2 [20, 31]: 6.8 h
Activity (Mus musculus [12]): Active
Activity (TSEC [21]): Active
